Holding throughout (type): in vivo
Assay [1] concerns inflammatory cytokine factors in the colon tissue. Kind of assay: mRNA levels of inflammatory cytokine factors in colon tissue of DSS mice (Example 6.2). To be noted: DSS + β-lapachone 80 mg/kg. How it is done:
(§1) After 8-week-old C57BL/6 female mice (Samtako, Korea) were divided into each group (=10), each experimental group was fed a standard rodent diet supplemented with 3% (w/w) DSS in drinking water for the first 5 days to induce acute colitis and orally administered control (vehicle), β-lapachone 40 mg/kg, and β-lapachone 80 mg/kg for 14 days.
(§2) By the same method as in Example 6.1, experimental groups were divided into a DSS untreated group (Control), a DSS treated group, and a DSS+β-lapachone 80 mg/kg treated group, respectively, and treated. After the end of the experiment, the mice were sacrificed to remove the colon, and the accurate colon length was measured using a Vernier caliper, and is shown FIGS. 11A and 11B. In addition, the mRNA levels of genes of interleukin-1beta (IL-1β), interleukin-6 (IL-6), interleukin-18 (IL-18), interferon-γ (INF-γ), tumor necrosis factor-α (TNF-α), tumor necrosis factor-β (TNF-β), and monocyte chemoattractant protein-1 (MCP-1), which were inflammatory cytokine factors in the colon tissue, were analyzed by a real-time polymerase chain reaction through a conventional experiment procedure, and are shown in FIG. 12.

In assay [2] the test system is DSS-induced inflammatory bowel disease mice. Kind of assay: Colon length in DSS-induced inflammatory bowel disease mice (Example 6.2). Conditions: DSS + β-lapachone 80 mg/kg. How it is done: as §1, §2
Assay [3] has as its system DDC-induced cholestatic liver disease mice. In words: Sirius Red and Masson's trichrome staining of liver connective tissue, DDC-induced cholestatic liver disease mice. Conditions: 40 and 80 mg/kg in diet, DDC 14 days. How it is done: DDC-induced cholestatic liver disease mouse animal models were prepared according to the method of Elisa Pose et al. by using 8-week-old C57BL/6 male mice (Samtako, Korea). Briefly, cholestatic liver disease was induced by feeding a standard rodent diet supplemented with 0.1% (w/w) DDC for 7 or 14 days. The 12-hour light and dark cycle was maintained and animals were allowed to free access to water. The standard rodent diet included medium wheat, wheat, corn, and corn gluten flour, and soybean oil (14% protein). All animal related procedures were reviewed and approved by the Institutional Animal Care and Use Committee of Korea Research Institute of Bioscience and Biotechnology (KRIBB), KRIBB-AEC-20165). The tissue staining of the cholestatic liver disease animal models was measured through H&E staining (basic tissue staining), Sirius Red staining (collagen staining), and Masson's trichrome staining (collagen, cytoplasm, muscle fibers, etc.), and the tissue staining was measured by a skilled researcher. To investigate the preventive effect of β-Lapachone (BL) on cholestatic liver disease, the mice were fed a diet with 0 (DDC-vehicle), 40 mg/kg (DDC-BL40) and 80 mg/kg (DDC-BL80) 3 days before DDC treatment (total 17 days) and, after 3 days, were fed a diet with DDC (total 14 days). […]

Structures are written as SMILES.

Data on one compound can be found in patent publication US20240115545A1, “PHARMACEUTICAL COMPOSITION CONTAINING B-LAPACHONE AS ACTIVE INGREDIENT FOR PREVENTION OR TREATMENT OF CHOLESTATIC LIVER DISEASE” (CUROME BIOSCIENCES CO., LTD., priority 2020, published 2024).

With `CC1(C)CCC2=C(O1)c1ccccc1C(=O)C2=O` [β-lapachone], in assay [1], the “mRNA level of IL-1β in colon tissue” value is listed as “significantly reduced”, the “mRNA level of IL-6 in colon tissue” value was “significantly reduced”, the “mRNA level of IL-18 in colon tissue” value is given as “significantly reduced” and the “mRNA level of INF-γ in colon tissue” value is listed as “significantly reduced”. Moreover, in assay [1], the “mRNA level of MCP-1 in colon tissue” value was “significantly reduced”, the “mRNA level of TNF-α in colon tissue” value was “significantly reduced” and the “mRNA level of TNF-β in colon tissue” value is listed as “significantly reduced”. Moreover, in assay [2], the “colon length shortened by DSS” value is recorded as “recovered”. Moreover, the “formation of connective tissues / fibrosis progression (Sirius Red and Masson's trichrome staining)” value in assay [3] is recorded as “inhibited such fibrosis progression”.
